The molecule `CC(=O)NCCc1cccc2ccc(OCCCCCCOc3ccc4cccc(CCNC(C)=O)c4c3)cc12` [Example 17, N-[2-(7-{[6-({8-[2-(Acetylamino)ethyl]-2-naphthyl}oxy)hexyl]oxy}-1-naphthyl)ethyl]acetamide] came in with a melting point of 142 to 144 °C.

The melting point is the temperature, or range, at which the solid turns liquid.
